# From ChEMBL document CHEMBL1127956, “Tetrahydroisoquinoline as a phenylalanine replacement in renin inhibitors” (Bioorg Med Chem Lett, 1994)
# Target: T1, Renin (Homo sapiens) (UniProt P00797)
# T1 sequence (whole entry): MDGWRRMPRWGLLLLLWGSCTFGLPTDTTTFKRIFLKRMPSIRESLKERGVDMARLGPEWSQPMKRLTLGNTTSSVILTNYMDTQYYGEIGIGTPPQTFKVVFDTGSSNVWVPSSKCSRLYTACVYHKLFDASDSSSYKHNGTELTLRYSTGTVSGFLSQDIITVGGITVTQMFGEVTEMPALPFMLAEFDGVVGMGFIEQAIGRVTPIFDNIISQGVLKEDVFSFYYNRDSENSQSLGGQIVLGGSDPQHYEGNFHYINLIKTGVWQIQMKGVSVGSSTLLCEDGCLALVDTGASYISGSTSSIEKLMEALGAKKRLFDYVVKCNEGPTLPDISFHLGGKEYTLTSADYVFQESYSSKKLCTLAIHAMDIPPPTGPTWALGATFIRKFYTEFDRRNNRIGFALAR
# Experiment: In vitro inhibitory activity against monkey plasma renin was determined at 10e-6 M
# Type: cell-free
# Conditions: Cercopithecidae, target entry is the homologue from another species
row,inhibition [%],Structure (SMILES)
1,11.9,CC(C)C[C@H](O)[C@H](O)[C@H](CC1CCCCC1)NC(=O)CNC(=O)[C@@H]1Cc2ccccc2CN1C(=O)OC(C)(C)C
2,9.8,CC(C)C[C@H](O)[C@H](O)[C@H](CC1CCCCC1)NC(=O)CCC(=O)[C@@H]1Cc2ccccc2CN1C(=O)OC(C)(C)C
3,0,CC(C)C[C@H](O)[C@H](O)[C@H](CC1CCCCC1)NC(=O)CCC(O)[C@@H]1Cc2ccccc2CN1C(=O)OC(C)(C)C (stereo partly specified)

# Target: T2, Renin (Homo sapiens, UniProt P00797)
# T2 sequence (P00797 whole entry): T1 sequence (whole entry)
# Experiment: In vitro inhibitory activity against monkey plasma renin
# Type: cell-free, Cercopithecidae
# Conditions: target entry is the homologue from another species
row,IC50 [nM],Structure (SMILES)
1,11.5,C=CC[C@H](NC(=O)[C@@H]1Cc2ccccc2CN1)C(=O)N[C@@H](CC1CCCCC1)[C@@H](O)[C@@H](O)CC(C)C
2,373,C=CC[C@H](NC(=O)[C@H]1Cc2ccccc2CN1)C(=O)N[C@@H](CC1CCCCC1)[C@@H](O)[C@@H](O)CC(C)C
3,146,C=CC[C@H](NC(=O)[C@@H]1Cc2ccccc2CN1C(=O)OC(C)(C)C)C(=O)N[C@@H](CC1CCCCC1)[C@@H](O)[C@@H](O)CC(C)C
4,3.6,CC(C)C[C@H](O)[C@H](O)[C@H](CC1CCCCC1)NC(=O)CNC(=O)[C@H](Cc1ccccc1)NS(=O)(=O)N1CCOCC1
5,101,CC(C)C[C@H](O)[C@H](O)[C@H](CC1CCCCC1)NC(=O)CNC(=O)[C@@H]1Cc2ccccc2CN1S(=O)(=O)N1CCOCC1
6,2.89,C=CC[C@H](NC(=O)[C@@H]1Cc2ccccc2CN1S(=O)(=O)N1CCOCC1)C(=O)N[C@@H](CC1CCCCC1)[C@@H](O)[C@@H](O)CC(C)C
7,0.42,C=CC[C@H](NC(=O)[C@H](Cc1ccccc1)NC(=O)OC(C)(C)C)C(=O)N[C@@H](CC1CCCCC1)[C@@H](O)[C@@H](O)CC(C)C
8,325,C=CC[C@H](NC(=O)[C@H]1Cc2ccccc2CN1C(=O)OC(C)(C)C)C(=O)N[C@@H](CC1CCCCC1)[C@@H](O)[C@@H](O)CC(C)C
